Patent US10792305B2, “Therapeutic immune modulation using noble gas compositions” (NOBILIS THERAPEUTICS, INC., priority 2015, dated 2020)
Entries after “also recorded” stand apart in the source; their conditions may differ.

Assays:
PTSD = settings: 20 mg/day and 40 mg/day, cited from earlier work
[1] = test system: severely disruptive symptoms related to autistic disorder; settings: pentoxifylline titrated to 600 mg/day with risperidone up to 3 mg/day, 10 weeks, versus placebo+risperidone; cited from earlier work
[2] = test system: behavioral symptoms of children with ASD; settings: 30 or 60 mg per day p.o. for 3-4 months, 25 children; cited from earlier work
[3] = test system: TNF-alpha production from monocytes; assay: Induced TNF-alpha production by monocytes (adherent PBMC), ELISA; type: cell-based, human; settings: 30% xenon by volume for 1 or 2 hours; 1 ug/ml LPS and 10 μM amyloid beta peptide Aβ (1-42) for 24 h; supernatant ELISA
Method: 10 ml of heparinized blood was extracted from healthy volunteers and peripheral blood mononuclear cells were isolated by centrifugation over a ficoll gradient. Cells were subsequently washed in 2× volume phosphate buffered saline, and resuspended in RPMI media supplemented with 10% fetal calf serum. Cells were incubated at a concentration of 10 million cells per ml in 6-well plates in a volume of 2 ml per well. Cells were cultured for 24 hours at 37 Celsius in a fully humidified atmosphere with 5% CO2, subsequent to which non-adherent cells were removed by washing with PBS. Adherent cells were subsequently divided into […], one plate incubated at normoxic tissue culture, the second plate cultured for 1 hour in 30% xenon by volume, and the third tissue cultured for 2 hours in 30% volume. Cells were treated with control media, 1 ug/ml LPS and 10 μM of amyloid beta peptide Aβ (1-42) for 24 h. Supernatant was collected and assessed for TNF-alpha production by ELISA.

[4] = test system: IL-12 production from dendritic cells; assay: Induced IL-12 production by dendritic cells, ELISA; type: cell-based, human; settings: CD1c dendritic cells; 1 ug/ml LPS and 10 μM amyloid beta peptide Aβ (1-42) for 24 h; supernatant ELISA
Method: Monocytes from adherent PBMC were isolated as described in Example 1. Dendritic cells were generated by 7 day culture in IL-4 (10 ng/ml) and GM-CSF (20 ng/ml). Media was changed every two days. On day 7, purification of CD1c dendritic cells was performed and cells were cultured in control media, 1 ug/ml LPS and 10 μM of amyloid beta peptide Aβ (1-42) for 24 h. Supernatant was collected and assessed for IL-12 production by ELISA.

Fc1ccc([C@@H]2CCNC[C@H]2COc2ccc3c(c2)OCO3)cc1 [paroxetine]
improvement on primary outcome measures compared to placebo (PTSD; intent-to-treat analysis): significantly greater improvement | PTSD symptom clusters (reexperiencing, avoidance/numbing, hyperarousal), social and occupational impairment, comorbid depression (PTSD; versus placebo): statistically significant improvement compared to placebo | tolerability (PTSD): well tolerated

CC(=O)CCCCn1c(=O)c2c(ncn2C)n(C)c1=O [pentoxifylline]
ABC-C subscale scores (Irritability, Lethargy/Social Withdrawal, Stereotypic Behavior, Hyperactivity/Noncompliance, Inappropriate Speech) [1]: greater reduction in ABC-C subscale scores

CCc1ccc(CCOc2ccc(CC3SC(=O)NC3=O)cc2)nc1 (stereo not shown) [pioglitazone]
adverse events [2]: without adverse events

[Xe] [xenon gas, xenon]
induced TNF-alpha production (FIG. 1) [3]: suppression of induced TNF-alpha production was observed; also recorded: suppression of inducible TNF-alpha production | induced IL-12 production (FIG. 2) [4]: suppression of induced IL-12 production was observed; also recorded: suppression of inducible IL-12 production
